Reference: patent EP2727916A1, “Neuroprotective multi-target directed drugs” (Universitat Autònoma de Barcelona, priority 2012, dated 2014)
Read-outs that look alike come from different tables or passages of the source.

Experiments:
[1] = biological target: T1, equine serum butyrylcholinesterase (eqBuChE) (Equus caballus, UniProt P81908); test: biochemical; format: biochemical
[2] = biological target: T2, electrophorus electricus acetylcholinesterase (eeAChE) (Electrophorus electricus, UniProt O42275); test: biochemical; format: biochemical; settings: 20 minutes incubation at 37°C; mean ± standard error of the mean; read-out: IC50 EeAChE
T2 sequence (O42275 24-633): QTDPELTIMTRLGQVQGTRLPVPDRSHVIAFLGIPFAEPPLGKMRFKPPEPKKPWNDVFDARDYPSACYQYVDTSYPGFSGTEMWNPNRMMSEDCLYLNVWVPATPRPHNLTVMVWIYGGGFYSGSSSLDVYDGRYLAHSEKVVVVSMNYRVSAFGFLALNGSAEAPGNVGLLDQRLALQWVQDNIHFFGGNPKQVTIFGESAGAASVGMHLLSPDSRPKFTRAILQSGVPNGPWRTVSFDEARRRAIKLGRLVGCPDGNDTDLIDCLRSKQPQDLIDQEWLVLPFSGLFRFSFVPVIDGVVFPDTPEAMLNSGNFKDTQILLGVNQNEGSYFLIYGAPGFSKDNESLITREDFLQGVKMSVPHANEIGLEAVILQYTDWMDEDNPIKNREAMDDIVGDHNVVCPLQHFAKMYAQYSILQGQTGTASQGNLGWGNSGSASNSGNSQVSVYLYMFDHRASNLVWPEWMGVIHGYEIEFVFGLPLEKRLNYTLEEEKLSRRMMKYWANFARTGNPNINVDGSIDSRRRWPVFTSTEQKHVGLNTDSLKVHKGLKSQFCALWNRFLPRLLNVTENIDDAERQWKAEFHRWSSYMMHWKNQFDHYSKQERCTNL

bovine lung SSAO = biological target: T3, bovine lung SSAO (Bos taurus, UniProt Q9TTK6); test: Inhibition of semicarbazide sensitive amine oxidase (SSAO), radiochemical; format: biochemical; settings: bovine lung SSAO; mean ± standard error of the mean; read-out: IC50 bovineSSAO
T3 construct: and bovine lung SSAO by compounds of the invention; from tissue; host or cells: bovine lung
T3 sequence (Q9TTK6 1-763): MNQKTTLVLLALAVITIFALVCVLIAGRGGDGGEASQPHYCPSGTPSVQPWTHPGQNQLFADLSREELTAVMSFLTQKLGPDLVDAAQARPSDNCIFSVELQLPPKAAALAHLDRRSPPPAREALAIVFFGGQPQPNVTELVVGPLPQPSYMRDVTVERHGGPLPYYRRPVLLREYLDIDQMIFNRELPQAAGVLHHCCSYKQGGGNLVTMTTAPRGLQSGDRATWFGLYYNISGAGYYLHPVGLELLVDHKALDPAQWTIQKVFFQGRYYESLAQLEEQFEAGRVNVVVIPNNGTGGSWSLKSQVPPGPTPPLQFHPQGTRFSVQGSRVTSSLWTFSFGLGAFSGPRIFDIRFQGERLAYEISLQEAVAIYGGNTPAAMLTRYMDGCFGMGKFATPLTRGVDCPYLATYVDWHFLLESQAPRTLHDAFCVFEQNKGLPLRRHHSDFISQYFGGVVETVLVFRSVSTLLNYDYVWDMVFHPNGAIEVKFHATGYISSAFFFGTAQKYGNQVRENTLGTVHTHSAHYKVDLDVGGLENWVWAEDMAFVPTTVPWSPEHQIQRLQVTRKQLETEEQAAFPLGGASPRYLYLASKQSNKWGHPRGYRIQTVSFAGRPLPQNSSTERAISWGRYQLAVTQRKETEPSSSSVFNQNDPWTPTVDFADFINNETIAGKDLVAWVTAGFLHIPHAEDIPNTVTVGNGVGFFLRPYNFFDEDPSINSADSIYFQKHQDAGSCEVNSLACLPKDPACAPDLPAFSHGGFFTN

ratMAO-B [3] = biological target: T4, ratMAO-B (Rattus norvegicus, UniProt P19643); test: MAO-B inhibition, radiometric method of Fowler and Tipton (14C PEA); format: biochemical; design: MAO-A and MAO-B activities were determined in rat brain homogenate; from tissue; host or cells: rat brain homogenate per the methods; settings: for IC50: 30 min pre-incubation at 37 °C, 20 µM PEA, mean ± standard error of the mean
T4 sequence (P19643 1-520): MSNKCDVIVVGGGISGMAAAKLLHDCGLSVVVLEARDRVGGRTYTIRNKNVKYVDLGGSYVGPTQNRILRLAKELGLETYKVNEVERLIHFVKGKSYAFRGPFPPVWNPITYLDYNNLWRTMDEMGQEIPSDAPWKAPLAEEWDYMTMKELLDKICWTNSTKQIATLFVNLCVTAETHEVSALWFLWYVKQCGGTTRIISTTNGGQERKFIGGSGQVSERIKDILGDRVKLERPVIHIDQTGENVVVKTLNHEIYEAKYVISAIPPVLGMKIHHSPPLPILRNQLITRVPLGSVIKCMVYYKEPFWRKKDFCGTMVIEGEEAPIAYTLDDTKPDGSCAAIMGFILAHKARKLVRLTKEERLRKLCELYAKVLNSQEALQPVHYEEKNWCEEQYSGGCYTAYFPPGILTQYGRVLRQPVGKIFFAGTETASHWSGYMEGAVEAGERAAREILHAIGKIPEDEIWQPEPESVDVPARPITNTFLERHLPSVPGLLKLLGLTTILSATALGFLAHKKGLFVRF

ratMAO-A [4] = biological target: T5, ratMAO-A (Rattus norvegicus, UniProt P21396); test: MAO-A inhibition, radiometric method of Fowler and Tipton (14C 5-HT); format: biochemical; design: MAO-A and MAO-B activities were determined in rat brain homogenate; from tissue; host or cells: rat brain homogenate per the methods; settings: 30 min pre-incubation at 37 °C; 100µM 5-HT; mean ± standard error of the mean
T5 sequence (P21396 1-526): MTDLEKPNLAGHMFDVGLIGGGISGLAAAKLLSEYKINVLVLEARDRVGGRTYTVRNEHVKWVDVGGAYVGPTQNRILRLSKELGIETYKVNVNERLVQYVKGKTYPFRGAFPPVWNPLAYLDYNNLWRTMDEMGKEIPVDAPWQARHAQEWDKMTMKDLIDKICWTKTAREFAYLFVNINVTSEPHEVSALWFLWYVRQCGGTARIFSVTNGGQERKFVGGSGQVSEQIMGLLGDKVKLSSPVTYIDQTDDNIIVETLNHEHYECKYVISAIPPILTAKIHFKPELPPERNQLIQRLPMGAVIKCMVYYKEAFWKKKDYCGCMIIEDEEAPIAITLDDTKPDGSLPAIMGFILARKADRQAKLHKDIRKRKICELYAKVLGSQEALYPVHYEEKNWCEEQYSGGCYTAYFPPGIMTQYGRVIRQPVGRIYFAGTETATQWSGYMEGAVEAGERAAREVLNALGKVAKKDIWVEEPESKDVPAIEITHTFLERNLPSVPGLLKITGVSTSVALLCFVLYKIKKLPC

[5] = biological target: T2, electrophorus electricus acetylcholinesterase (eeAChE); settings: reference value, footnote (a) Zheng et al. 2010; cited from earlier work
ratMAO-B [6] = biological target: T4, ratMAO-B; design: MAO-A and MAO-B activities were determined in rat brain homogenate; from tissue; host or cells: rat brain homogenate per the methods; settings: reference value, footnote (a) Zheng et al. 2010; cited from earlier work
[7] = biological target: T1, equine serum butyrylcholinesterase (eqBuChE); settings: reference value, footnote (a) Zheng et al. 2010; cited from earlier work
ratMAO-A [8] = biological target: T5, ratMAO-A; design: MAO-A and MAO-B activities were determined in rat brain homogenate; from tissue; host or cells: rat brain homogenate per the methods; settings: reference value, footnote (a) Zheng et al. 2010; cited from earlier work
[9] = 20 minutes incubation at 37°C, mean ± standard error of the mean, read-out: IC50 eqBuChE

T1 sequence (P81908 whole entry): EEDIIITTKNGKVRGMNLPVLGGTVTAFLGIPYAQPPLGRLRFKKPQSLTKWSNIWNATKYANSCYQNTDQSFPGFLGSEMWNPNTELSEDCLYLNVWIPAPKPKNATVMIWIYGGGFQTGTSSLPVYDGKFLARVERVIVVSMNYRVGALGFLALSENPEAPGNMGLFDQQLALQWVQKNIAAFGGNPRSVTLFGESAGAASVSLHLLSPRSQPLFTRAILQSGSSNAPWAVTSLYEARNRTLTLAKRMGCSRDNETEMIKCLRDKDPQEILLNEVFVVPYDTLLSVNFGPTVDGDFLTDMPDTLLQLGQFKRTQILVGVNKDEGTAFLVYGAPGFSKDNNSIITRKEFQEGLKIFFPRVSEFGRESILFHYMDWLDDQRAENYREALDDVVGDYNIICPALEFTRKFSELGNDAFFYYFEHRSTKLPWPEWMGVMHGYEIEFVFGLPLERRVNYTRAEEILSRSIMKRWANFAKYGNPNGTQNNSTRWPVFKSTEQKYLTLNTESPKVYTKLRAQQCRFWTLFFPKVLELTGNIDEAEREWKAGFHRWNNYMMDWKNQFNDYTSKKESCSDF

C#CCN(CCC1CCN(Cc2ccccc2)CC1)Cc1ccc(O)c2ncccc12 [Compound 5, 5-(((2-(1-benzylpiperidin-4-yl)ethyl)(prop-2-ynyl)amino)methyl)quinolin-8-ol]
IC50 [1, 9]: 14.5 ± 3.6 µM
BuChE/ AChE ([1]; ratio of IC50 values): 2.8
IC50 [2]: 5.01 ± 0.8 µM
IC50 (bovine lung SSAO): 39.7 ± 16 µM
IC50 (ratMAO-B [3]): 50.08 ± 0.5 µM
MAO-B/ MAO-A (ratMAO-B [3]; ratio of IC50 values): ≥ 0.5
IC50 (ratMAO-A [4]): ≥ 100 µM

C#CCN(Cc1ccc(O)c2ncccc12)CC1CCN(Cc2ccccc2)CC1 [Compound 3, 5-((((1-benzylpiperidin-4-yl)methyl)(prop-2-ynyl)amino)methyl)quinolin-8-ol]
IC50 [1, 9]: 12.8 ± 1.4 µM
BuChE/ AChE ([1]; ratio of IC50 values): 0.75
IC50 [2]: 17 ± 4.7 µM
IC50 (bovine lung SSAO): ≥ 100 µM
IC50 (ratMAO-B [3]): 19.4 ± 3.2 µM
MAO-B/ MAO-A (ratMAO-B [3]; ratio of IC50 values): 0.22
IC50 (ratMAO-A [4]): 85.4 ± 3.7 µM

C#CCN(Cc1ccc(O)c2ncccc12)C(C#N)CC1CCN(Cc2ccccc2)CC1 (centres unmarked) [Compound 4, 3-(1-benzylpiperidin-4-yl)-2-(((8-hydroxyquinolin-5-yl)methyl)(prop-2-ynyl)amino)propanenitrile]
BuChE/ AChE [1]: 1.1
IC50 [1]: 6.06 ± 0.6 µM
IC50 [2]: 5.53 ± 0.5 µM
IC50 (bovine lung SSAO): 2.79 ± 0.7 µM
MAO-B/ MAO-A (ratMAO-B [3]): 1.2
IC50 (ratMAO-B [3]): 12.4 ± 2.5 µM
IC50 (ratMAO-A [4]): 9.67 ± 1.5 µM

C#CCN(Cc1ccc(O)c2ncccc12)C(C#N)C1CCN(Cc2ccccc2)CC1 (centres unmarked) [Compound 2, 2-(1-benzylpiperidin-4-yl)-2-(((8-hydroxyquinolin-5-yl)methyl)(prop-2-ynyl)amino)acetonitrile]
IC50 [1, 9]: 13.5 ± 1.8 µM
BuChE/ AChE ([1]; ratio of IC50 values): 0.92
IC50 [2]: 14.5 ± 3.7 µM
IC50 (bovine lung SSAO): 18 ± 5 µM
MAO-B/ MAO-A (ratMAO-B [3]): 1.7
IC50 (ratMAO-B [3]): 39.5 ± 1.4 µM
IC50 (ratMAO-A [4]): 22.1 ± 0.7 µM

C#CCN(C)Cc1ccc(O)c2ncccc12 [Compound M-30]
IC50 [5]: 114 ± 14.1 µM
IC50 (ratMAO-B [6]): 0.057 ± 0.02 µM
IC50 [7]: ≥ 100 µM
IC50 eqBuChE [7]: inactive
IC50 (ratMAO-A [8]): 0.037 ± 0.02 µM
MAO-B/ MAO-A (ratMAO-B [3]): 1.5

C#CCN(CCCC1CCN(Cc2ccccc2)CC1)Cc1ccc(O)c2ncccc12 [Compound 7, 5-(((3-(1-benzylpiperidin-4-yl)propyl)(prop-2-ynyl)amino)methyl)quinolin-8-ol]
IC50 [1, 9]: 4.52 ± 0.3 µM
BuChE/ AChE ([1]; ratio of IC50 values): 1.6
IC50 [2]: 2.67 ± 0.4 µM
IC50 (bovine lung SSAO): 61.1 ± 21.4 µM
IC50 (ratMAO-B [3]): 34.5 ± 3.5 µM
MAO-B/ MAO-A (ratMAO-B [3]; ratio of IC50 values): ≥ 0.34
IC50 (ratMAO-A [4]): ≥ 100 µM
